Assay results from US8399484B2, “Combination therapy for treating HCV infection” (priority 2008, dated 2013).
Counter-ions that a name gives are not always drawn. Like-named read-outs stand apart in the source and are kept apart here.

Assays:
[1] = tested on: chronic hepatitis C genotype-1 infection; conditions: for Virologic rebound during the first 28 days of treatment: 240 mg qd + PegIFN/RBV
Procedure: (§1) The solvent was also used as the placebo.
A multiple rising dose study evaluated the safety and antiviral activity in P+R treatment-experienced patients (pts) with chronic hepatitis C genotype-1 infection for 28 days as combination therapy with P+R.
All patients were monitored for safety and tolerability of study drugs. The primary endpoint was a ≧2 log 10 reduction in HCV viral load (VL) from baseline at any time up to Day 28. Plasma HCV-RNA levels were measured using the Roche COBAS® TaqMan® assay (LLOQ 25 IU/mL). The treatment experienced patients in this study included P+R null responders and partial responders. After day 28, at the discretion of the investigator, patients could continue to receive standard of care treatment, i.e., P+R.

[2] = tested on: D168 variants (genotype 1b NS3); assay: Drug sensitivity assay: HCV replicon shuttle vector with patient NS3 amplicons, luciferase, Huh-7.5 cells; format: cell-based; conditions: Hepatitis C virus, Huh7.5, read-out: EC50 values
From the text: (§2) A bicistronic HCV replicon shuttle vector (pIT2) comprising a luciferase reporter gene and an adapted Con-1 NS3/NS5B region was modified to create two unique restriction sites (Mlu I and Spe I) at NS3 codons 11 and 225 which enabled the insertion of compatible NS3 amplicons isolated from HCV-infected patient plasma samples. The first-round PCR product synthesized from the patient plasma-purified RNA (also used for generating fragments for population- and clonal-based sequencing) was used to amplify a 0.65 kbp fragment with primer pairs that respectively contain the unique MluI and SpeI restriction sites for insertion into the shuttle vector. Amplicons were ligated in the pIT2 shuttle vector and reconstituted plasmid DNA was used to generate HCV subgenomic replicon RNA transcripts (T7 RIBOMAX™ kit, Promega). […] At the end of the incubation, luciferase activity was measured with the BRIGHT-GLO™ substrate as the luminescence quantified (CPS) in each well of the culture plate reflected the amount of HCV RNA replication. […] The EC50 of mutant NS3 were compared to the baseline EC50 and used to generate fold-change values.

[3] = tested on: R155K variants (genotype 1a NS3); assay: as above; format: cell-based; conditions: Hepatitis C virus, Huh7.5, read-out: range of EC50 values
From the text: as §2

[4] = tested on: chronic HCV genotype-1 infection; conditions: for VL rebound during treatment in the first 14 days of monotherapy: all dose groups
Procedure: as §1
A multiple rising dose study evaluated safety and antiviral activity in treatment-naive patients (pts) with chronic HCV genotype-1 infection as monotherapy for 14 days followed by triple combination therapy with P+R for an additional 14 days.
Plasma HCV-RNA levels were measured with Roche COBAS® TaqMan® assay (LLOQ 25 IU/m L). After day 28, at the discretion of the investigator, patients could continue to receive standard of care treatment, i.e., P+R.

Which “Virologic rebound during the first 28 days of treatment (patients)” value ([1]; 48 mg qd + PegIFN/RBV) does the source give for `C=C[C@@H]1C[C@]1(NC(=O)[C@@H]1C[C@H](Oc2cc(-c3csc(NC(=O)C(C)C)n3)nc3c(Br)c(OC)ccc23)CN1C(=O)[C@@H](NC(=O)OC1CCCC1)C(C)(C)C)C(=O)O` [Compound (1) sodium salt] here?
The value was 2/6.

What about the “Virologic rebound during the first 28 days of treatment (patients)” value ([1]; 120 mg qd + PegIFN/RBV) of the same compound?
The value was 1/7.

And the “pts with VL<25 IU/mL at Day 28” value ([1]; 240 mg qd + P+R)?
The value was “⅚”.

What about the “Virologic rebound during the first 28 days of treatment” value [1] of the same compound?
The value was “no rebound”.

What about the “Virologic rebound during the first 28 days of treatment” value ([1]; listed as BI 201335) of the same compound?
Its value is “No rebound”.

What about the “VL decline achieved with triple combination therapy” value ([1]; all pts, + P+R) of the same compound?
Its value is > 2 log 10.

And the “Discontinuation of treatment due to an AE” value ([1]; combination with P+R, AE anxiety)?
The value was “One subject discontinued”.

What about the “VL at next visit, Day 42” value ([1]; sixth pt of the 240 mg qd cohort) of the same compound?
Its value is < 25 IU/ml.

What about the “VL rebound during treatment in the first 14 days of monotherapy” value [4] of the same compound?
Its value is “majority of patients”.

What about the “VL rebound during treatment in the first 14 days of monotherapy” value ([4]; listed as Compound (1) (sodium salt)) of the same compound?
Its value is “majority of the patients”.

And the “VL decline achieved during the monotherapy period” value ([4]; all pts on active except 1 pt in the 20 mg cohort)?
The value was > 2 log 10.

And the “Discontinuation of treatment due to adverse events” value ([4]; during monotherapy)?
The value was “No pts discontinued”.

What about the “Time of maximal decline of VL after starting treatment” value ([4]; monotherapy, typical) of the same compound?
Its value is 2 to 4 days.
